Laboratory results from patent US12171756B2, “NLRP3 modulators” (Innate Tumor Immunity, Inc., priority 2017, dated 2024).

Assays:
human TLR8 = target: T1, human TLR8 (Homo sapiens, UniProt Q9NR97); assay: In vitro human TLR8 binding reporter assay (HEK-Blue, NF-kB/AP1-inducible SEAP); format: cell-based; settings: HEK-Blue human TLR8 SEAP reporter cells; activity range classes; read-out: TLR8 Agonist EC50
T1 construct: host or cells: human HEK-Blue cells (HEK293-derived) co-expressing TLR8 and an NF-kB/AP1-inducible SEAP reporter
T1 sequence (Q9NR97 27-1041): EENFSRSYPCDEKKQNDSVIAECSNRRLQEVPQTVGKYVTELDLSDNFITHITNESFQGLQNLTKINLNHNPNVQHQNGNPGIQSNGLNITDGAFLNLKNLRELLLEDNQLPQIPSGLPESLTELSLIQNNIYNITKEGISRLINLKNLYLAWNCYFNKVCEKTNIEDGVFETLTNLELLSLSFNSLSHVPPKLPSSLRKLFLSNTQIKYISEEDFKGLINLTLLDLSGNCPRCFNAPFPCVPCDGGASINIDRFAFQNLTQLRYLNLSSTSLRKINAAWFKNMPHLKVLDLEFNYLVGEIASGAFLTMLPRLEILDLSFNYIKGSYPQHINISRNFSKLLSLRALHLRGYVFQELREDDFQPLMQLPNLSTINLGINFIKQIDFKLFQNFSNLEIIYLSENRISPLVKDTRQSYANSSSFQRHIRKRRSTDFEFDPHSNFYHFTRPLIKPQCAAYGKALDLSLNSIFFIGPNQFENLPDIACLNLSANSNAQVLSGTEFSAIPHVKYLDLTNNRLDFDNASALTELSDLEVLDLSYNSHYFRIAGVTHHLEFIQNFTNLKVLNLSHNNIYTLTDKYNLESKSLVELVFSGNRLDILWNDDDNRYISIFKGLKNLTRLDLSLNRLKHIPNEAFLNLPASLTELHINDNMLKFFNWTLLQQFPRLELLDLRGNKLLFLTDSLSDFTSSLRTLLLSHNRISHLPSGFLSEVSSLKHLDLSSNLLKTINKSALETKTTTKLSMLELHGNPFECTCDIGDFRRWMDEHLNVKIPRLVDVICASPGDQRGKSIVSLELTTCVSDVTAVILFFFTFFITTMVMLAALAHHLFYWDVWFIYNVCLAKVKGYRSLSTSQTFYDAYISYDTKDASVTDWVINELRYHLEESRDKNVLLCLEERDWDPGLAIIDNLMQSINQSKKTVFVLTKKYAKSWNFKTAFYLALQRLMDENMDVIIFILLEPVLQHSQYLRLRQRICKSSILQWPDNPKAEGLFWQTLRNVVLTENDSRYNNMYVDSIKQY
Method in brief: (§1)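 Cells are seeded and grown for 24 h. Compounds or DMSO are then added and incubated 18 h at 37 °C. Quanti-Blue is added, and SEAP is read after thirty minutes. EC50 values are normalized, with RLU from 50 μM reference standard setting 100% Ymax.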

human TLR7 = target: T2, human TLR7 (Homo sapiens, UniProt Q9NYK1); assay: In vitro human TLR7 binding reporter assay (HEK-Blue, NF-kB/AP1-inducible SEAP); format: cell-based; settings: HEK-Blue human TLR7 SEAP reporter cells; activity range classes; read-out: TLR7 Agonist EC50
T2 construct: host or cells: human HEK-Blue cells (HEK293-derived) co-expressing TLR7 and an NF-kB/AP1-inducible SEAP reporter
T2 sequence (Q9NYK1 27-1049): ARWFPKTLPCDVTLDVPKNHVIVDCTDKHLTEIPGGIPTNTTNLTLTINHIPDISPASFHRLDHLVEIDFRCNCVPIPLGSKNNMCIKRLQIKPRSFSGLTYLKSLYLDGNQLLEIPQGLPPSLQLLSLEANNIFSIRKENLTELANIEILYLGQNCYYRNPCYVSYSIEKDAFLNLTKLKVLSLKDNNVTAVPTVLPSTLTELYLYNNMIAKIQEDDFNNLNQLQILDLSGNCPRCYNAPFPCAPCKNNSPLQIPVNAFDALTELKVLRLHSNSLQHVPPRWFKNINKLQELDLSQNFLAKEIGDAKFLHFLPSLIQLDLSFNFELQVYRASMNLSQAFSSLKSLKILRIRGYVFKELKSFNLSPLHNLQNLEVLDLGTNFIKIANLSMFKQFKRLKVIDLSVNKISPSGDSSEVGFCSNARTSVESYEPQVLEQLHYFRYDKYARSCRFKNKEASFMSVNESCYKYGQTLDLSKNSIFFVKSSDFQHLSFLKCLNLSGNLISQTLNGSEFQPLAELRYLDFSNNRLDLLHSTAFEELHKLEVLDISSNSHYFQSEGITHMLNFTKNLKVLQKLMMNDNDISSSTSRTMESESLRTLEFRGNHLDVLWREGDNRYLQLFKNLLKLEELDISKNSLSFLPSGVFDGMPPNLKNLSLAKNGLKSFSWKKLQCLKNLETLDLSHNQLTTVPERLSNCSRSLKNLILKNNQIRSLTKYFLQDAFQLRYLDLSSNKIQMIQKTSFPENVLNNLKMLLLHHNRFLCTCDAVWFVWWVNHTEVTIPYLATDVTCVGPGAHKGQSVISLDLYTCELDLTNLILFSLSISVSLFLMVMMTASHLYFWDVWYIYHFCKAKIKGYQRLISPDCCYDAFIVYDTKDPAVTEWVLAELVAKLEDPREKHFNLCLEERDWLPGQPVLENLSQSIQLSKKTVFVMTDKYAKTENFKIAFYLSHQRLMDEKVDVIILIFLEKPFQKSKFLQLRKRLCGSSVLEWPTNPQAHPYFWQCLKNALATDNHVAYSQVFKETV
Method in brief: as §1

[1] = tested on: IL-1β production in PMA-differentiated THP-1 cells; assay: Measurement of IL-1β production in PMA-differentiated THP-1 cells (ELISA, 4 hours); format: cell-based, human; settings: Homo sapiens, THP-1, human IL-1β production, assayed using one or more of the described procedures, read-out: NLRP3 hIL1B IC50
Method in brief: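 IL-1β released into supernatant was measured by ELISA after a 4-hour compound exposure (final DMSO 1%, concentrations such as 100 down to 0.1 μM). Cells: THP-1 pretreated 24 h with 10 μg/ml PMA, then trypsinized and seeded at 1×10^6/ml in 2% FBS RPMI.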

Structure (SMILES)	EC50 (human TLR8) [µM]	EC50 (human TLR7) [µM]	IC50 [1] [µM]
Nc1cc(N[C@H]2CCOC2)c2ccc(-c3ccn[nH]3)cc2n1 [Compound 277]	> 100	> 100	0.22
Nc1cc(NC2CCOCC2)c2ccc(-c3ccn[nH]3)cc2n1 [Compound 278]	> 100	> 100	1.31
Nc1cc(NC2CCCOC2)c2ccc(-c3ccn[nH]3)cc2n1 (stereo not drawn) [Compound 279]	> 100	> 100	0.33
Nc1cc(NC2COC2)c2ccc(-c3ccn[nH]3)cc2n1 [Compound 280]	> 100	> 100	1.57
Nc1cc(NC2CCCCC2)c2ccc(-c3ccn[nH]3)cc2n1 [Compound 281]	> 100	> 100	0.58
Nc1cc(N[C@H]2CC[C@H](O)CC2)c2ccc(-c3ccn[nH]3)cc2n1 [Compound 282]	> 100	> 100	5.66
Nc1cc(N[C@H]2CC[C@@H](O)CC2)c2ccc(-c3ccn[nH]3)cc2n1 [Compound 283]	> 100	> 100	1.7
Nc1cc(NCCc2cccnc2)c2ccc(-c3ccn[nH]3)cc2n1 [Compound 284]	> 100	> 100	0.38
Nc1cc(NC[C@H]2CCCN2)c2ccc(-c3cc[nH]n3)cc2n1 [Compound 285]	> 100	> 100	1.56
Nc1cc(N2CCCNCC2)c2ccc(-c3cc[nH]n3)cc2n1 [Compound 286]	> 100	> 100	13.1
Nc1cc(NC[C@@H](O)CO)c2ccc(-c3ccn[nH]3)cc2n1 [Compound 287]	> 100	> 100	0.7
Nc1cc(N[C@H]2CCCOC2)c2ccc(-c3ccn[nH]3)cc2n1 [Compound 288]	> 100	> 100	0.39
Nc1cc(N[C@@H]2CCCOC2)c2ccc(-c3ccn[nH]3)cc2n1 [Compound 289]	> 100	> 100	0.85
CCO[C@H]1COC[C@@H]1Nc1cc(N)nc2cc(-c3ccn[nH]3)ccc12 [Compound 291]	> 100	> 100	1.67
Nc1cc(NCc2cc[nH]n2)c2ccc(-n3cccn3)cc2n1 [Compound 292]	> 100	> 100	0.34
Nc1cc(NCCc2ccccn2)c2ccc(-n3cccn3)cc2n1 [Compound 293]	> 100	> 100	0.87
Nc1cc(NCc2nc[nH]n2)c2ccc(-n3cccn3)cc2n1 [Compound 294]	> 100	> 100	0.21
Nc1cc(N[C@@H]2CCC[C@@H]2O)c2ccc(-n3cccn3)cc2n1 [Compound 295]	> 100	> 100	0.31
Nc1cc(NCCO)c2ccc(-n3cccn3)cc2n1 [Compound 296]	> 100	> 100	0.56

Structure (SMILES)	EC50 (human TLR8) [µM]	EC50 (human TLR7) [µM]	IC50 [1] [µM]
Nc1cc(NCCc2nccs2)c2ccc(-n3cccn3)cc2n1 [Compound 297]	> 100	> 100	0.57
Nc1cc(NCc2ncc[nH]2)c2ccc(-n3cccn3)cc2n1 [Compound 298]	> 100	> 100	0.15
Nc1cc(NCC(F)(F)c2ccccn2)c2ccc(-n3cccn3)cc2n1 [Compound 299]	> 100	> 100	0.65
Nc1cc(NCc2ccccn2)c2ccc(-n3cccn3)cc2n1 [Compound 300]	> 100	> 100	0.54
CC(C)(O)CCNc1cc(N)nc2cc(-n3cccn3)ccc12 [Compound 301]	> 100	> 100	1.01
Nc1cc(NCCn2cccn2)c2ccc(-n3cccn3)cc2n1 [Compound 302]	> 100	> 100	0.05
Cc1nc(CNc2cc(N)nc3cc(-n4cccn4)ccc23)cs1 [Compound 303]	> 100	> 100	0.14
Nc1cc(N[C@H]2CCC[C@H]2O)c2ccc(-n3cccn3)cc2n1 [Compound 304]	> 100	> 100	0.37
CS(=O)(=O)CCNc1cc(N)nc2cc(-n3cccn3)ccc12 [Compound 305]	> 100	> 100	0.64
CC(=O)NCCNc1cc(N)nc2cc(-n3cccn3)ccc12 [Compound 306]	> 100	> 100	1.1
Nc1cc(NCc2cnc[nH]2)c2ccc(-n3cccn3)cc2n1 [Compound 307]	> 100	> 100	0.11
Nc1cc(NCCn2cncn2)c2ccc(-n3cccn3)cc2n1 [Compound 308]	> 100	> 100	0.52
Nc1cc(NCc2cccnn2)c2ccc(-n3cccn3)cc2n1 [Compound 309]	> 100	> 100	0.42
CC(C)(CO)COc1cc(N)nc2cc(-c3ccn[nH]3)ccc12 [Compound 310]	> 100	> 100	0.11
Cn1nncc1COc1cc(N)nc2cc(-c3ccn[nH]3)ccc12 [Compound 311]	> 100	> 100	3.13
Cn1ncnc1COc1cc(N)nc2cc(-c3ccn[nH]3)ccc12 [Compound 312]	> 100	> 100	1.59
Nc1cc(OCc2ccn[nH]2)c2ccc(-c3ccn[nH]3)cc2n1 [Compound 313, 4-((1H-pyrazol-5-yl)methoxy)-7-(1H-pyrazol-5-yl)quinolin-2-amine]	> 100	> 100	0.11
Nc1ccc2ccc(-c3ccn[nH]3)cc2n1 [Compound 314, 7-(1H-pyrazol-5-yl)quinolin-2-amine]	> 100	> 100	1.8
Nc1cc(NC(CO)CO)c2ccc(-c3ccn[nH]3)cc2n1 [Compound 315, 2-((2-amino-7-(1H-pyrazol-5-yl)quinolin-4-yl)amino)propane-1,3-diol]	> 100	> 100	1.52
